Experimental data as given in patent US20240327417A1, “HETEROCYCLIC COMPOUNDS” (BeiGene Switzerland GmbH, priority 2021, published 2024).

Experiments:
[1] = target: T1, Full length DGKζ (in-house protein M1-V929) (Homo sapiens, UniProt Q13574); experiment: Biochemical DGK IC50 assay (ADP-Glo, lipid micelle substrate), DGKζ; conditions: 0.5 nM enzyme, 140 μM ATP, 80 μM DAG, 1 hour preincubation, 1 hour reaction, room temperature, read-out: IC50s for DGKζ
T1 construct: His (N); TEV cleavage site (N); made in house; host or cells: Sf9 insect cells (baculovirus, Bac-to-Bac)
T1 sequence (Q13574 1-929 isoform Q13574-4): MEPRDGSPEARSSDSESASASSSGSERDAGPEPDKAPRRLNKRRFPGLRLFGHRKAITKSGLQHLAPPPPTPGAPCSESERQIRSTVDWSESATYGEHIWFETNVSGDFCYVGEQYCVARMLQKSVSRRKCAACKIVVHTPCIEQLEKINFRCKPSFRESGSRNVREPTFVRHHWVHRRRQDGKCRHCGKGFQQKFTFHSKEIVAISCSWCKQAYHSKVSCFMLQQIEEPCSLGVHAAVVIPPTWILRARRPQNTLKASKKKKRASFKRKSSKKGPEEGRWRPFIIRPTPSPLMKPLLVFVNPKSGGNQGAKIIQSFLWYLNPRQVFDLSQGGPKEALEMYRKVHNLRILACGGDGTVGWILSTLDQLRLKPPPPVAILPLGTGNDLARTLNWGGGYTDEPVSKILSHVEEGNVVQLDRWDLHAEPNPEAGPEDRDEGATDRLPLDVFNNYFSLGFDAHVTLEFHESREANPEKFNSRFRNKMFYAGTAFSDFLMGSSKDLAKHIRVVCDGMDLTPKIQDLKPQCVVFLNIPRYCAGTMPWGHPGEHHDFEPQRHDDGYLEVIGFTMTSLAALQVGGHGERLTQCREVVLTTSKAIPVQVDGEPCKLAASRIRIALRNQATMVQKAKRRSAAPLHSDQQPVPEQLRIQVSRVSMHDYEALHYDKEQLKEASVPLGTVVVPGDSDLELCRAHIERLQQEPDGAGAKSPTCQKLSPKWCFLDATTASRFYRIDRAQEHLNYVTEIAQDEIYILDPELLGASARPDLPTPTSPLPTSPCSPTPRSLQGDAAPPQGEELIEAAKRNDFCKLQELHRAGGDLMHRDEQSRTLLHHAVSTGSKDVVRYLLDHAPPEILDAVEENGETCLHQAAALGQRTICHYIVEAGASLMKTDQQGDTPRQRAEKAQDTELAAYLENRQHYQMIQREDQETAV
Procedure: (§1) Enzymatic reactions of DGKζ, DGKα and DGKδ were performed using ADP-Glo assay with lipid micelle substrate. […] Full length DGKα (D21-10BG, SignalChem) and full length DGKδ (D23-10G, SignalChem) were purchased. Lipid micelle was prepared by dissolving DAG (Sigma, 317505-10MG) and PS (Sigma, P7769-100MG) with chloroform which was firtherly removed by rotary evaporation. The obtained residue was resuspended in buffer containing 25 mM HEPES pH 7.0, 0.5 mM EDTA and 160 mM Octyl β-D glucopyranoside by vigorous mixing and ultrasonic (IID, Scientz).
(§2) The inhibition activities testing for the compound disclosed herein were carried out at room temperature in assay buffer containing 50 mM HEPES, 10 mM MgCl2, 0.01% BSA, 0.1 mM Na3VO4, 0.005% Tween-20 and 0.01 mM CaCl2. Compounds in DMSO were dispensed into wells of a black 384 well plate (Corning 4514) using D300e digital dispenser (Tecan). The ranges of compounds final concentration were 1.55˜10000 nM or 23.3˜150000 nM. 3 μL 2× enzyme solution was added to wells. […] After 1 hour reaction, 5 μL ADP-Glo reagent (Promga V9101) was added and incubated for 40 minutes. 10 μL Kinase Detection reagent was added and incubated for 30 minutes. Luminescence was measured on a microplate reader (PHERAstar FSX, BMG labtech). The IC50s are calculated based on inhibition of enzyme activity in the presence of increasing concentrations of compounds.
Human His-TEV-DGK-zeta-pFastBac1 and human baculovirus samples was generated using the Bac-to-Bac baculovirus expression system (Invitrogen) according to the manufacturer's protocol. The DNA used for expression of DGK-zeta, have SEQ ID Nos: 1. Baculovirus amplification was achieved using infected SF9 cells at 1:2000 virus/cells ratios, and grown for 96 hours at 27° C. post-transfected.
The expression scaled up for each protein was carried out in the […] from CORNING. 4 L of 3×10^6 cells/mL Sf9 cells (Expression System, Invitrogen) grown in SF900™ II SFM insect medium (Expression System) was infected with virus stock at 1:200 virus/cells ratio, and grown for 48 hours at 27° C. post-transfection. The infected cell culture was harvested by centrifugation at 6000 rpm for 15 min 4° C. in a SORVALL LYNX6000 centrifuge. The cell pellets were stored at −80° C.
Full length human DGKζ produced as described above, was purified from Sf9 baculovirus-infected insect cell paste. The cells were lysed using sonication method, and the lysates were clarified by centrifugation.

[2] = target: T2, Full length DGKα (D21-10BG, SignalChem) (Homo sapiens, UniProt P23743); experiment: Biochemical DGK IC50 assay (ADP-Glo, lipid micelle substrate), DGKα; conditions: 7.5 nM enzyme, 140 μM ATP, 80 μM DAG, 1 hour preincubation, 1 hour reaction, room temperature, read-out: IC50s for DGKα
T2 construct: Full length DGKα (D21-10BG, SignalChem); purchased SignalChem D21-10BG
T2 sequence (P23743 whole entry): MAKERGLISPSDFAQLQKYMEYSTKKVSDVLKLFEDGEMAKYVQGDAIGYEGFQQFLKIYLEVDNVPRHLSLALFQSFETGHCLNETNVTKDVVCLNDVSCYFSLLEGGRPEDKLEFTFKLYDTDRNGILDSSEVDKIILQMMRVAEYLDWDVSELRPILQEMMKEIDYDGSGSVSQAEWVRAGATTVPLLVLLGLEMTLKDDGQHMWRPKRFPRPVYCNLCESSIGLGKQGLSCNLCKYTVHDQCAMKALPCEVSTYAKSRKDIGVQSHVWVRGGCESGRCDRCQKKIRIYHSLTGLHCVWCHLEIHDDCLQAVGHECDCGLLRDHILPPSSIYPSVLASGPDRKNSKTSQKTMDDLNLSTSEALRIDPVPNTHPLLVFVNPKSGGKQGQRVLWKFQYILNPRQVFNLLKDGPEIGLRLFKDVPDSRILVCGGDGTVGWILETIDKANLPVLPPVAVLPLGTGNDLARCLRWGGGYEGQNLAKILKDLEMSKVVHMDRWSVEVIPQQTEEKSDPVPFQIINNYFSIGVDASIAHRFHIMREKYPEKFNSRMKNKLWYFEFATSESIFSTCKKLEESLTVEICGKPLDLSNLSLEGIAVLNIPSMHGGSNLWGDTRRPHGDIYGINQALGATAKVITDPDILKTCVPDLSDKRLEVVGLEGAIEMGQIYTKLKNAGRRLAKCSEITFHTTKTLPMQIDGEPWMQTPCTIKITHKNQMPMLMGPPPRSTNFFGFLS
Procedure: as §1, §2

SMILES	IC50 [1] [nM]	IC50 [2] [nM]
CC[C@H]1CN(C(C)c2ccc(C3CC3)nc2F)[C@H](CC)CN1c1cc(=O)n(C)n2cc(CC#N)nc12 (single isomer, unassigned) [Compound A42b]	1250	1060
CC(c1ccc2nccnc2c1)N1C[C@H](C)N(c2cc(=O)n(C)n3cc(CS(C)(=O)=O)nc23)C[C@H]1C (stereo partly drawn) [Compound A11, 8-((2S,5R)-2,5-dimethyl-4-(1-(quinoxalin-6-yl)ethyl)piperazin-1-yl)-5-methyl-2-((methylsulfonyl)methyl)imidazo[1,2-b]pyridazin-6(5H)-one]	> 10000	> 10000
CC[C@H]1CN(C(C)c2cc3sc(C)nc3cc2F)[C@H](CC)CN1c1cc(=O)n(C)n2cc(CC#N)nc12 (single isomer, unassigned) [Compound A61b]	2000	5520
CC[C@H]1CN(C(C)c2ccc3ncsc3c2)[C@H](CC)CN1c1cc(=O)n(C)n2cc(CC#N)nc12 (single isomer, unassigned) [Compound A53b]	215	235
CC(c1ccc2c(c1)OCO2)N1C[C@H](C)N(c2cc(=O)n(C)n3cc(CC#N)nc23)C[C@H]1C (stereo partly drawn) [Compound A29, 2-(8-((2S,5R)-4-(1-(benzo[d][1,3]dioxol-5-yl)ethyl)-2,5-dimethylpiperazin-1-yl)-5-methyl-6-oxo-5,6-dihydroimidazo[1,2-b]pyridazin-2-yl)acetonitrile]	474	296
CC[C@H]1CN(C(C)c2cc3scnc3cc2F)[C@H](CC)CN1c1cc(=O)n(C)n2cc(CC#N)nc12 (single isomer, unassigned) [Compound A59a]	26	54
CC(c1ccc2nccnc2c1)N1C[C@H](C)N(c2cc(=O)n(C)n3cc(CC#N)nc23)C[C@H]1C (single isomer, unassigned) [Compound A1b]	> 10000	2750
CC[C@H]1CN(C(C)c2cc3sc(C)nc3cc2F)[C@H](CC)CN1c1cc(=O)n(C)n2cc(CC#N)nc12 (single isomer, unassigned) [Compound A61a]	126	400
CC(c1ccc2ncc(Cl)nc2c1)N1C[C@H](C)N(c2cc(=O)n(C)n3cc(CC#N)nc23)C[C@H]1C (stereo partly drawn) [Compound A21, 2-(8-((2S,5R)-4-(1-(3-chloroquinoxalin-6-yl)ethyl)-2,5-dimethylpiperazin-1-yl)-5-methyl-6-oxo-5,6-dihydroimidazo[1,2-b]pyridazin-2-yl)acetonitrile]	27	2710
CC[C@H]1CN(C(C)c2ccc3nc(CC4CC4)sc3n2)[C@H](CC)CN1c1cc(=O)n(C)n2cc(CC#N)nc12 (single isomer, unassigned) [Compound A110a]	1170	1070
CC[C@H]1CN(C(C)c2ccc3nc(C)sc3n2)[C@H](CC)CN1c1cc(=O)n(C)n2cc(CC#N)nc12 (single isomer, unassigned) [Compound A58a]	2160	1220
CC[C@H]1CN(C(C)c2ccc(C(C)(C)C#N)nc2)[C@H](CC)CN1c1cc(=O)n(C)n2cc(CC#N)nc12 (stereo partly drawn) [Compound A40, 2-(5-(1-((2R,5S)-4-(2-(cyanomethyl)-5-methyl-6-oxo-5,6-dihydroimidazo[1,2-b]pyridazin-8-yl)-2,5-diethylpiperazin-1-yl)ethyl)pyridin-2-yl)-2-methylpropanenitrile]	124	297
CC(c1ccc2c(c1)OC(C)(C)CO2)N1C[C@H](C)N(c2c(C#N)c(=O)n(C)n3cc(CC#N)nc23)C[C@H]1C (mixture of isomers) [Compound A27, 2-(cyanomethyl)-8-((2S,5R)-4-(1-(3,3-dimethyl-2,3-dihydrobenzo[b][1,4]dioxin-6-yl)ethyl)-2,5-dimethylpiperazin-1-yl)-5-methyl-6-oxo-5,6-dihydroimidazo[1,2-b]pyridazine-7-carbonitrile]	10	858
CCC(c1ccc(C(F)(F)F)cc1)N1C[C@H](CC)N(c2cc(=O)n(C)n3cc(CC#N)nc23)C[C@H]1CC (single isomer, unassigned) [Compound A77b]	1940	454
CC#CCc1cn2c(n1)c(N1C[C@@H](CC)N(C(C)c3ccc4ncsc4c3F)C[C@@H]1CC)cc(=O)n2C (single isomer, unassigned) [Compound A117b]	2000	535
CC[C@@H]1CN(c2cc(=O)n(C)n3cc(CC#N)nc23)[C@@H](C)CN1C(C)c1ccc2nccnc2c1 (single isomer, unassigned) [Compound A13a]	16	966
[2H]C([2H])([2H])C(c1ccc2nc(C)sc2c1)N1C[C@H](CC)N(c2cc(=O)n(C([2H])([2H])[2H])n3cc(CC#N)nc23)C[C@H]1CC (single isomer, unassigned) [Compound A95b]	1020	1530
CC[C@H]1CN(C(C)c2ccc(C(C)C)nc2)[C@H](CC)CN1c1cc(=O)n(C)n2cc(CC#N)nc12 (single isomer, unassigned) [Compound A38b]	475	423
CC[C@@H]1CN(c2cc(=O)n(C)n3cc(CC#N)nc23)[C@@H](C)CN1C(C)c1ccc2ccsc2n1 (stereo partly drawn) [Compound A86, 2-(8-((2S,5R)-5-ethyl-2-methyl-4-(1-(thieno[2,3-b]pyridin-6-yl)ethyl)piperazin-1-yl)-5-methyl-6-oxo-5,6-dihydroimidazo[1,2-b]pyridazin-2-yl)acetonitrile]	36	18
CC[C@@H]1CN(c2cc(=O)n(C)n3cc(CC#N)nc23)[C@@H](C)CN1C(C)c1ccc2nc(C)sc2n1 (single isomer, unassigned) [Compound A84b]	5090	3310
CCc1nc2ccc(C(C)N3C[C@H](C)N(c4cc(=O)n(C)n5cc(CC#N)nc45)C[C@H]3CC)cc2s1 (single isomer, unassigned) [Compound A101a]	29	851
CC[C@H]1CN(C(C)c2ccncc2)[C@H](CC)CN1c1cc(=O)n(C)n2cc(CC#N)nc12 (stereo partly drawn) [Compound A35, 2-(8-((2S,5R)-2,5-diethyl-4-(1-(pyridin-4-yl)ethyl)piperazin-1-yl)-5-methyl-6-oxo-5,6-dihydroimidazo[1,2-b]pyridazin-2-yl)acetonitrile]	3120	42
CCc1nc2ccc(C(C)N3C[C@H](CC)N(c4cc(=O)n(C)n5cc(CC#N)nc45)C[C@H]3CC)cc2s1 (single isomer, unassigned) [Compound A100b]	911	1060
CC[C@H]1CN(C(C)c2ccc3nccnc3c2)[C@H](CC)CN1c1cc(=O)n(C)n2cc(CC#N)nc12 (single isomer, unassigned) [Compound A14a]	6	217
CC[C@@H]1CN(c2cc(=O)n(C)n3cc(CC#N)nc23)[C@@H](C)CN1C(C)c1ccc(C(F)(F)F)cc1F (single isomer, unassigned) [Compound A17b]	4720	823
CC(c1ccc2c(c1)OC(C)(C)CO2)N1C[C@H](C)N(c2c(C#N)c(=O)n(C)n3cc(CC#N)nc23)C[C@H]1C (single isomer, unassigned) [Compound A27b]	579	486
CC[C@@H]1CN(c2cc(=O)n(C)n3cc(CC#N)nc23)[C@@H](C)CN1C(C)c1ccc2nc(C)sc2n1 (single isomer, unassigned) [Compound A84a]	52	169
Cc1cnc2ccc(C(C)N3C[C@H](C)N(c4cc(=O)n(C)n5cc(CC#N)nc45)C[C@H]3C)cc2n1 (single isomer, unassigned) [Compound A2a]	7400	26800
CC(c1ccc2nccnc2c1)N1C[C@H](C)N(c2cc(=O)n(C)n3cc(CC#N)nc23)C[C@H]1C (single isomer, unassigned) [Compound A1a]	35	1270
CC[C@H]1CN(C(C)c2ccc(C(C)C)nc2)[C@H](CC)CN1c1cc(=O)n(C)n2cc(CC#N)nc12 (single isomer, unassigned) [Compound A38a]	21	43
